Assay [1] deals with NDM-1 Enterobacter cloacae. Nature of the assay: Carbon utilisation assay. It counts as cell-based. Conditions: anaerobic; M9 minimal medium, 0.5% (w/v) carbon source.
The subject of assay [2] is NDM-1 Escherichia coli. Nature of the assay: Carbon utilisation assay. It is filed as cell-based. The settings on record: M9 minimal medium, 0.5% (w/v) carbon source.
The subject of assay [3] is NDM-1 Klebsiella pneumoniae. Nature of the assay: Carbon utilisation assay. It is filed as cell-based. Conditions: M9 minimal medium, 0.5% (w/v) carbon source.
For assay [4], the system named is vancomycin-resistant E. faecalis. Nature of the assay: VRE nutrient utilization protocol: carbon sources. The settings on record: aerobic; VRE minimal medium. It is filed as cell-based, Enterococcus faecalis. As to the method: (§1) VRE minimal media consists of potassium phosphate monobasic (4 g/L), potassium phosphate dibasic (14 g/L), sodium citrate (1 g/L), magnesium sulphate (0.2 g/L), ammonium sulphate (2 g/L), adenosine (0.04 g/L), thymine (0.04 g/L), Kao and Michayluk vitamin solution [Sigma, K3129, 50× Stock](5×), glucose (1 g/L) and amino acid solution [Sigma, R7131, RPMI-1640, 50×](25×). If the study was performed under anaerobic conditions, fumarate (5.2 g/L) was added to increase growth of VRE strains. Carbon-free minimal media was prepared by leaving out glucose while nitrogen-free minimal media was prepared without the amino acid solution. Media was filter sterilized with a 0.22 micron filter and used immediately aerobically or degassed overnight if used anaerobically.
(§2) VRE strains were grown on R2A overnight before the cells were suspended in 0.9% saline to an OD of 0.38 (λ=595 nm). A 10% dilution of the cell suspension was prepared using VRE minimal media to achieve a final well OD of […] (λ=595 nm) greater than the sterile media OD. Both carbon and nitrogen source utilization were evaluated by adding the inoculated media and a filter-sterilised nutrient source solution into a well in a 1:1 ration to a final volume of 100 μL in aerobic tests and 200 μL in anaerobic tests. Carbon sources were tested individually and compared to a carbon-free control. To test nitrogen source utilization, a nitrogen source solution was prepared containing L-alanine (2 g/L), L-arginine (2.5 g/L, L-asparagine (0.71 g/L), L-aspartate (0.25 g/L), L-cysteine (0.625 g/L), L-glutamate (0.25 g/L), L-Glycine (0.125 g/L), L-histidine (0.1875 g/L), L-isoleucine (0.625 g/L), L-leucine (0.625 g/L), L-lysine HCl (0.5 g/L), L-methionine (0.1875 g/L), L-phenylalanine (0.1875 g/L), L-proline (0.25 g/L), L-serine (0.375 g/L), L-threonine (0.25 g/L), L-tryptophan (0.0625 g/L), L-tyrosine (0.29 g/L), L-valine (0.25 g/L), N-acetylglucosamine (2 g/L), and uracil (2.5 g/L). To test the strains' ability to utilize individual nitrogen sources, separate solutions were prepared eliminating one nitrogen source each. The change in growth compared to the complete nitrogen source solution control was used to determine nitrogen utilization. All carbon and nitrogen sources were tested in a technical triplicate for each biological replicate. Aerobic plates were incubated with a plate seal while anaerobic plates were not. The aerobic plate reader was set to read the plate (λ=595 nm, 37° C., 22 flashes per well, orbital shaking of 100 rpm for 15 s prior to each read) every 15 minutes for 24 hours. The anaerobic plate reader read the plate (λ=595 nm, 37° C., stationary) every 15 minutes for 24 hours.

Assay [5] has as its system vancomycin-resistant E. faecium. Nature of the assay: VRE nutrient utilization protocol: carbon sources. It is filed as cell-based, Enterococcus faecium. Conditions: aerobic; VRE minimal medium. How it is done:
as §1, §2

Assay [6] concerns NDM-1 Enterobacter cloacae. Nature of the assay: Individual metabolite inhibition assay. It counts as cell-based. Conditions: LB pH 6.5, 16 hours anaerobic. As to the method: (§3) New Delhi Metallo-β-lactamase 1 (NDM-1) Escherichia coli, NDM-1 Klebsiella pneumoniae, and NDM-1 Enterobacter cloacae were isolated from patients with intestinal CRE colonisation from the Imperial College Healthcare NHS Trust via rectal swab (REC ref. 19/LO/0112). The species were assigned by matrix assisted laser desorption ionization-time of flight (MALDI-TOF) mass spectrometry and later confirmed with 16S rRNA gene sequencing. CRE status was determined using X-pert Carba-R PCR detection (Cepheid, Sunnyvale, CA, USA), (Otter, J. A. et al. Detecting carbapenemase-producing Enterobacterales (CPE): an evaluation of an enhanced CPE infection control and screening programme in acute care. J Antimicrob Chemother 75, 2670-2676 (2020)).
(§4) Each metabolite was tested individually in an inhibition assay against each CRE isolate. Each metabolite was tested at three concentrations: the low, average, and high concentrations that were measured in healthy faeces (from Table 1). LB was supplemented with each metabolite (at the three different concentrations) and compared to a no metabolite control. […] Overnight cultures of each CRE isolate were inoculated at 10^3 CFU/ml. Cultures were incubated anaerobically for 16 hours at 37° C. Growth was measured at OD600 after 16 hours of incubation. Growth of the CRE isolate in the presence of each metabolite was compared to the no metabolite control using a one-way ANOVA followed by Dunn's multiple comparison test.

Assay [7] has as its system NDM-1 Escherichia coli. Nature of the assay: Individual metabolite inhibition assay. It is filed as cell-based. The settings on record: LB pH 6.5, 16 hours anaerobic. How it is done: as §3, §4
The test system of assay [8] is NDM-1 Klebsiella pneumoniae. Nature of the assay: Individual metabolite inhibition assay. It is filed as cell-based. The settings on record: LB pH 6.5, 16 hours anaerobic. As to the method: as §3, §4
Assay [9] concerns NDM-1 Enterobacter cloacae. Nature of the assay: Nitrogen utilisation assay. It counts as cell-based. Conditions: anaerobic; M9 minimal medium with glucose, 0.1% (w/v) nitrogen source.
For assay [10], the system named is NDM-1 Escherichia coli. Nature of the assay: Nitrogen utilisation assay. It counts as cell-based. Conditions: anaerobic; M9 minimal medium with glucose, 0.1% (w/v) nitrogen source.
In assay [11] the test system is NDM-1 Klebsiella pneumoniae. Nature of the assay: Nitrogen utilisation assay. It is filed as cell-based. Conditions: M9 minimal medium with glucose, 0.1% (w/v) nitrogen source.
The subject of assay [12] is NDM-1 Escherichia coli. Nature of the assay: Nutrient preference assay (nutrient mixture). It counts as cell-based. The settings on record: aerobic; M9 with […] of each nutrient, up to 24 hours.
Where [13] appears, read: at average and high concentrations (Table 1).
Where [14] appears, read: at low, average, and high concentrations (Table 1).

In the case of `O=C[C@H](O)[C@H](O)[C@H](O)CO` [ribose, D-ribose], the “Use as sole carbon source to support E. cloacae growth” value in [1] is “could use”. Also, the “Use as sole carbon source to support E. coli growth” value in [2] (aerobic) is listed as “able to grow”. The “Use as sole carbon source to support K. pneumoniae growth” value in assay [3] (aerobic) is listed as “able to grow”. In addition, the “Use as sole carbon source to support E. faecalis growth” value (“Use … to support E. faecalis growth” below) in assay [4] is “could use”. Moreover, in assay [5], the “Use as sole carbon source to support E. faecium growth” value (shortened to “Use … to support E. faecium growth”) was “could use”.

For the molecule `O=C[C@H](O)[C@@H](O)[C@@H](O)[C@H](O)CO` [galactose, D-galactose], in assay [1], the “Use as sole carbon source to support E. cloacae growth” value is on record as “could use”. Further, the “Use as sole carbon source to support E. coli growth” value in assay [2] (anaerobic) was “could use”. For the same molecule, in [3] (anaerobic), the “Use as sole carbon source to support K. pneumoniae growth” value is on record as “could use”. Besides, in assay [4], the “Use … to support E. faecalis growth” value was “could use”. Moreover, the “Use … to support E. faecium growth” value in assay [5] was “could use”.

As for `CCC(=O)O` [propionate], in assay [6] (setting [13]), the “E. cloacae growth (OD600) with individual metabolite” value (“E. cloacae growth (OD600)” for short) is on record as “inhibited”. For the same molecule, in assay [7] (setting [13]), the “E. coli growth (OD600) with individual metabolite” value (“E. coli growth (OD600)” below) was “inhibited”. In assay [8] (setting [13]), the “K. pneumoniae growth (OD600) with individual metabolite” value (“K. pneumoniae growth (OD600)” below) is “inhibited”.

For the molecule `CC(=O)O` [acetate], the “E. cloacae growth (OD600)” value in [6] (setting [13]) is recorded as “inhibited”. For the same molecule, the “E. coli growth (OD600)” value in assay [7] (setting [14]) is recorded as “inhibited”. Moreover, in assay [8] (setting [13]), the “K. pneumoniae growth (OD600)” value is recorded as “inhibited”.

Take `CC(=O)N[C@H]1C(O)O[C@H](CO)[C@@H](O)[C@@H]1O` (stereo partly shown) [N-acetylglucosamine]: the “Use as sole carbon source to support E. cloacae growth” value in assay [1] was “could use”. Besides, in [2] (anaerobic), the “Use as sole carbon source to support E. coli growth” value is recorded as “could use”. For the same molecule, the “Use as sole carbon source to support K. pneumoniae growth” value in assay [3] (anaerobic) is “could use”. In assay [9], the “Use as sole nitrogen source to support E. cloacae growth” value is on record as “could use”. Also, in assay [10], the “Use as sole nitrogen source to support E. coli growth” value was “could use”. Further, the “Use as sole nitrogen source to support K. pneumoniae growth” value in assay [11] (aerobic) is “not able to use”; in assay [11] (anaerobic), “could use”. In addition, the “Use … to support E. faecalis growth” value in [4] is “could use”. In addition, in assay [5], the “Use … to support E. faecium growth” value is given as “could use”.

Regarding `OC[C@H]1O[C@H](O[C@H]2O[C@H](CO)[C@@H](O)[C@H](O)[C@H]2O)[C@H](O)[C@@H](O)[C@@H]1O` [trehalose, D-trehalose], the “Use as sole carbon source to support E. cloacae growth” value in assay [1] is “could use”. Besides, the “Use as sole carbon source to support E. coli growth” value in [2] (anaerobic) is “could use”. Moreover, in [3] (anaerobic), the “Use as sole carbon source to support K. pneumoniae growth” value is “could use”. The “Use … to support E. faecalis growth” value in [4] was “could use”. The “Use … to support E. faecium growth” value in assay [5] is given as “could use”.

Regarding `OC[C@H]1O[C@@](CO)(O[C@H]2O[C@H](CO)[C@@H](O)[C@H](O)[C@H]2O)[C@@H](O)[C@@H]1O` [sucrose], in [1], the “Use as sole carbon source to support E. cloacae growth” value is reported as “could use”. For the same molecule, the “Use as sole carbon source to support E. coli growth” value in assay [2] (aerobic) was “able to grow”. In addition, the “Use as sole carbon source to support K. pneumoniae growth” value in [3] (anaerobic) is reported as “could use”. Moreover, the “Utilisation of nutrient by E. coli from nutrient mixture (1H-NMR)” value in [12] was “moderate utilisation”. In assay [4], the “Use … to support E. faecalis growth” value is “could use”.

As to `CCCC(=O)O` [butyrate], the “E. cloacae growth (OD600)” value in assay [6] (setting [14]) is listed as “inhibited”. Further, the “E. coli growth (OD600)” value in assay [7] (at high concentrations (Table 1)) is recorded as “inhibited”. Besides, in assay [8] (setting [14]), the “K. pneumoniae growth (OD600)” value is listed as “inhibited”.

In the case of `CCO` [ethanol], the “E. cloacae growth (OD600)” value in [6] (at the high concentration (Table 1)) was “inhibited”. Further, the “E. coli growth (OD600)” value in [7] (setting [13]) is given as “inhibited”.

With `O=C(CO)[C@@H](O)[C@H](O)[C@H](O)CO` [fructose, D-fructose], in assay [1], the “Use as sole carbon source to support E. cloacae growth” value is given as “could use”. Moreover, the “Use as sole carbon source to support E. coli growth” value in assay [2] (anaerobic) is “could use”. The “Use as sole carbon source to support K. pneumoniae growth” value in assay [3] (anaerobic) is recorded as “could use”. Besides, the “Use … to support E. faecalis growth” value in assay [4] is given as “could use”. In addition, in assay [5], the “Use … to support E. faecium growth” value was “could use”.

`OC[C@H]1O[C@H](O[C@H]2[C@H](O)[C@@H](O)[C@H](O)O[C@@H]2CO)[C@H](O)[C@@H](O)[C@@H]1O` [maltose, D-maltose]: in assay [1], the “Use as sole carbon source to support E. cloacae growth” value is given as “could use”. For the same molecule, the “Use as sole carbon source to support E. coli growth” value in assay [2] (aerobic) is reported as “able to grow”. In addition, in assay [3] (anaerobic), the “Use as sole carbon source to support K. pneumoniae growth” value is given as “could use”. Besides, the “Use … to support E. faecalis growth” value in assay [4] is reported as “could use”. The “Use … to support E. faecium growth” value in [5] is recorded as “could use”.

As to `CC(C)C(=O)O` [isobutyrate], the “E. cloacae growth (OD600)” value in assay [6] (setting [13]) is listed as “inhibited”. In assay [8] (setting [13]), the “K. pneumoniae growth (OD600)” value is listed as “inhibited”.

With `CCCCC(=O)O` [valerate], the “E. cloacae growth (OD600)” value in assay [6] (setting [14]) is on record as “inhibited”. In [7] (setting [13]), the “E. coli growth (OD600)” value is “inhibited”. Also, the “K. pneumoniae growth (OD600)” value in assay [8] (setting [13]) is “inhibited”.

The values are drawn from US20260183350A1, “ANTIBIOTIC-RESISTANT BACTERIA” (priority 2022, published 2026).
